Source: patent publication US6689349B1, “Skin protection agents containing a fragment mixture produced from hyaluronic acid by hydrolysis” (esparma GmbH, priority 1998, dated 2004)

Assays:
HaCaT keratinocytes = test: toxicity test: DNA synthesis performance by BrdU incorporation; assay type: cell-based, human; conditions: 24-hour incubation
Method: In order to characterise the influence of hyaluronic acid fragments of differing relative molar mass on the proliferation behaviour of human keratinocytes (HaCaT keratinocytes—made available by Prof. Dr. Norbert E. Fusenig: Deutsches Krebsforschungsinstitut Heidelberg, Germany), the DNA synthesis performance is determined with the aid of BrdU incorporation (Cell Proliferation ELISA, BrdU calorimetric—Boehringer Mannheim, Mannheim, Germany) into the DNA after a 24-hour period of incubation. For the following hyaluronic acid fragments examined, no toxic reaction of the cells could be observed.

[1] = lucigenin-reinforced xanthine oxidase test (radical binding, chemiluminescence); assay type: biochemical; conditions: cell-free system
Method: The property of binding reducing radicals, is measured in cell-free systems with a lucigenin-reinforced xanthine oxidase test on the basis of the conversion of hypoxanthine to uric acid. The O2-radicals produced in this process can be detected with lucigenin by relative chemiluminescence measurement. By the radical scavengers present, the O2-radicals are neutralised and the chemiluminescence yield reduced. […] An amount of 1 mg of the hyaluronic acid fragment according to the invention with a relative molar mass of 100 to 160 kD has a radical-binding activity which corresponds to that of 200 to 400 μg allopurinol. Hyaluronic acid with a relative molar mass of 1,800 kD has, on the other hand, a negligible radical-binding activity (Pierce, L. A., W. O. Tarnow-Mordi and I. A, Cree: Antibiotics Effects on Phagocyte Chemilunieszence in Vitro. In J. Clin. Lab. Res.- (1995) 25, 93-98).

- radical-binding activity [1]: negligible
Substance: hyaluronic acid
- toxic reaction of the cells / tolerance (DNA synthesis performance, BrdU incorporation) (HaCaT keratinocytes): very good tolerance
